“And” between values parts separate entries of the source, which are not always exact repeats. Equal values may be shown once.
biological target: FAK (Homo sapiens, UniProt Q05397); conditions: 100 nM; 1 h; relative to vehicle control; n = 8 measurements
Sequence (Q05397 whole entry): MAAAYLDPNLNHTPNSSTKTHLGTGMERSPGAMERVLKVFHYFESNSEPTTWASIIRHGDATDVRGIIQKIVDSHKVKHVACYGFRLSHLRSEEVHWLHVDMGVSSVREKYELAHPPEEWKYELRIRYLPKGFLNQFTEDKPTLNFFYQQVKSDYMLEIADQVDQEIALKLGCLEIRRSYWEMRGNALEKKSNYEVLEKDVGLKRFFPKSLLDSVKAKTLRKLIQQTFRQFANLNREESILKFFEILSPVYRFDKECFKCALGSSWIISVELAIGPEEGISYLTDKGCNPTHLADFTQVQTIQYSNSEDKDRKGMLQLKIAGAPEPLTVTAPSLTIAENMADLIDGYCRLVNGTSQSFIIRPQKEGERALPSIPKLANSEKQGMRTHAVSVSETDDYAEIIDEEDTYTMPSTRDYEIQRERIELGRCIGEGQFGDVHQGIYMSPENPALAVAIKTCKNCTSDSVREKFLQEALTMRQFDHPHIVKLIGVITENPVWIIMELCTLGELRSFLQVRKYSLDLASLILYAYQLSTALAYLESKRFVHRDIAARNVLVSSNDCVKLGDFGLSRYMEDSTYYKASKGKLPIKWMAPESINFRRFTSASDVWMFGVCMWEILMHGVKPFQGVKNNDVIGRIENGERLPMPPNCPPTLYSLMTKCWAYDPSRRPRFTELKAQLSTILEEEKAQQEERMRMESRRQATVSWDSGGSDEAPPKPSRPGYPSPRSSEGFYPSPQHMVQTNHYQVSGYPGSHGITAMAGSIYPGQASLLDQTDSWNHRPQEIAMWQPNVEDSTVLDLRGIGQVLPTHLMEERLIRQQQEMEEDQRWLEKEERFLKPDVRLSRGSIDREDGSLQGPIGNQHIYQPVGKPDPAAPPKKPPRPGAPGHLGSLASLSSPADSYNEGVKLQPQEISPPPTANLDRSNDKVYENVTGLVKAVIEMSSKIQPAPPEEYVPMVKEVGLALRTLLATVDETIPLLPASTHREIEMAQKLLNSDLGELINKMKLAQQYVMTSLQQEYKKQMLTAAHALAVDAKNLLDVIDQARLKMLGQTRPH

CN(C)C(CNC(=O)Nc1cc(C(F)(F)F)ccc1N1CCOCC1)c1cccnc1 (centres unmarked) [Compound 5b, 1-(2-(Dimethylamino)-2-(pyridin-3-yl)ethyl)-3-(2-morpholino-5-(trifluoromethyl)phenyl)urea] and CN(C)C(CNC(=O)Nc1cc(C(F)(F)F)ccc1N1CCOCC1)c1cccnc1.Cl (centres unmarked) [Compound 5bHCl, 1-(2-(Dimethylamino)-2-(pyridin-3-yl)ethyl)-3-(2-morpholino-5-(trifluoromethyl)phenyl)urea hydrochloric salt] are within error of each other in “FAK-Tyr-397/FAK fold change, ± SEM” value: 1.0±0.04 fold change for the first, 1.05±0.06 fold change for the second.

CN(C)C(CNC(=O)Nc1cc(C(F)(F)F)ccc1N1CCOCC1)c1ccccn1 (centres unmarked) [Compound 5c, 1-(2-(Dimethylamino)-2-(pyridin-2-yl)ethyl)-3-(2-morpholino-5-(trifluoromethyl)phenyl)urea] and CN(C)C(CNC(=O)Nc1cc(C(F)(F)F)ccc1N1CCOCC1)c1ccccn1.Cl (centres unmarked) [Compound 5cHCl, 1-(2-(Dimethylamino)-2-(pyridin-2-yl)ethyl)-3-(2-morpholino-5-(trifluoromethyl)phenyl)urea hydrochloric salt] are within error of each other in “FAK-Tyr-397/FAK fold change, ± SEM” value: 0.84±0.11 fold change for the first, 0.98±0.07 fold change for the second.

CC(C)(CNC(=O)Nc1cc(C(F)(F)F)ccc1N1CCOCC1)c1ccncc1 [Compound 6, 1-(2-Methyl-2-(pyridin-4-yl)propyl)-3-(2-morpholino-5-(trifluoromethyl)phenyl)urea] and CC(C)(CNC(=O)Nc1cc(C(F)(F)F)ccc1N1CCOCC1)c1ccncc1.Cl [Compound 6HCl, 1-(2-Methyl-2-(pyridin-4-yl)propyl)-3-(2-morpholino-5-(trifluoromethyl)phenyl)urea hydrochloric salt] are within error of each other in “FAK-Tyr-397/FAK fold change, ± SEM” value: 1.09±0.12 fold change for the first, 1.11±0.12 fold change for the second.

O=C(NCCc1ccncc1)Nc1cc(C(F)(F)F)ccc1N1CCOCC1 [Compound 7, 1-(2-Morpholino-5-(trifluoromethyl)phenyl)-3-(2-(pyridin-4-yl)ethyl)urea] and Cl.O=C(NCCc1ccncc1)Nc1cc(C(F)(F)F)ccc1N1CCOCC1 [Compound 7HCl, 1-(2-Morpholino-5-(trifluoromethyl)phenyl)-3-(2-(pyridin-4-yl)ethyl)urea hydrochloric salt] are within error of each other in “FAK-Tyr-397/FAK fold change, ± SEM” value: 0.98±0.07 fold change for the first, 0.91±0.13 fold change for the second.

O=C(NCCc1cnccn1)Nc1cc(C(F)(F)F)ccc1N1CCOCC1 [Compound 8, 1-(2-Morpholino-5-(trifluoromethyl)phenyl)-3-(2-(pyrazin-2-yl)ethyl)urea] and Cl.O=C(NCCc1cnccn1)Nc1cc(C(F)(F)F)ccc1N1CCOCC1 [Compound 8HCl, 1-(2-Morpholino-5-(trifluoromethyl)phenyl)-3-(2-(pyrazin-2-yl)ethyl)urea hydrochloric salt] are within error of each other in “FAK-Tyr-397/FAK fold change, ± SEM” value: 0.93±0.08 fold change for the first, 1.05±0.07 fold change for the second.

COC(=O)C(Cc1ccncc1)NC(=O)Nc1cc(C(F)(F)F)ccc1N1CCOCC1 (centres unmarked) [Compound 9a, Methyl 2-(3-(2-Morpholino-5-(trifluoromethyl)phenyl)ureido)-3-(pyridin-4-yl)propanoate] and COCCNC(=O)C(Cc1ccncc1)NC(=O)Nc1cc(C(F)(F)F)ccc1N1CCOCC1 (centres unmarked) [Compound 9b, N-(2-Methoxyethyl)-2-(3-(2-morpholino-5-(trifluoromethyl)phenyl)ureido)-3-(pyridin-4-yl)propanamide] are within error of each other in “FAK-Tyr-397/FAK fold change, ± SEM” value: 1.03±0.08 fold change for the first, 0.97±0.08 fold change for the second.

CN(C)C(CNC(=O)Nc1ccccc1N1CCOCC1)c1ccncc1 (centres unmarked) [Compound 10a, 1-(2-(Dimethylamino)-2-(pyridin-4-yl)ethyl)-3-(2-morpholinophenyl)urea] was tested, and the “FAK-Tyr-397/FAK fold change, ± SEM” value was 1.23±0.07 fold change.

In the case of CN(C)C(CNC(=O)Nc1cc(F)ccc1N1CCOCC1)c1ccncc1 (centres unmarked) [Compound 10b, 1-(2-(Dimethylamino)-2-(pyridin-4-yl)ethyl)-3-(5-fluoro-2-morpholinophenyl)urea], the “FAK-Tyr-397/FAK fold change, ± SEM” value is reported as 1.12 fold change and 1.12±0.05 fold change.

— article PMC12866986 (European journal of medicinal chemistry, 2026)
